Results on 21 compounds are retold here after patent US20240293392A1, “INHIBITOR COMPOUNDS” (NeoPhore Limited, priority 2021, published 2024).

Assay [1] addresses T1, recombinant N-terminal MLH1 (residues 15-340) (Homo sapiens, UniProt P40692).
T1 construct: recombinant N-terminal MLH1 (residues 15-340)
T1 sequence (P40692 15-340): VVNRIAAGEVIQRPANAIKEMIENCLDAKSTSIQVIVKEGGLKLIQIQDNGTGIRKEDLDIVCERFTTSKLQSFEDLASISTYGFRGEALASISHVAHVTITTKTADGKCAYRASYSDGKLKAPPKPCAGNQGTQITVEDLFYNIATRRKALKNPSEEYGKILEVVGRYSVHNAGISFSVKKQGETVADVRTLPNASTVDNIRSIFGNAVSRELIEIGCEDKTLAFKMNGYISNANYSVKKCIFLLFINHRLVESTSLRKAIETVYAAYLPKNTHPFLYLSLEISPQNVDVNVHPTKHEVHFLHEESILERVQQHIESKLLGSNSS
Briefly: Fluorescence Polarisation Assay for MLH1. Type of assay: binding. As to conditions: fluorescence polarisation probe displacement; 100 nM N-terminal MLH1, 5 nM probe compound. As to the method: Fluorescence Polarisation Assay for MLH1
Test compounds, as 10 mM DMSO stocks, were dispensed into a 384-well Low Flange Black Flat Bottom Polystyrene Non-binding Surface plate (Corning®, item number 3575) using a Labcyte Echo acoustic liquid handler. Test compounds were added to wells in columns 1-22 whilst DMSO was added to wells in columns 23 and 24 in order to normalise the plate. 20 μL of a 2× solution (200 nM) of recombinant N-terminal MLH1 (residues 15-340) in assay buffer (25 mM HEPES, pH 7.5, 250 mM NaCl, 10 mM MgCl2, 0.01% Triton X-100, 5 mM dithiothreitol) was added to all wells in columns 1-23 and 20 μL assay buffer was added to all wells in column 24 using an E1-ClipTip pipette (ThermoFisher). Plates were centrifuged for 1 minute at 250×g and were incubated at room temperature for 30 minutes prior to the addition of 20 μL of 2× (10 nM) 5-((5-(4-((2-(2,4-dihydroxy-5-isopropylbenzoyl)isoindolin-5-yl)methyl)piperazin-1-yl)pentyl)carbamoyl)-2-(6-(dimethylamino)-3-(dimethyliminio)-3H-xanthen-9-yl)benzoate in assay buffer (prepared from a 1 mM DMSO stock) with an E1-ClipTip pipette (ThermoFisher). The final concentration of N-terminal MLH1 was 100 nM and the final concentration of the probe compound was 5 nM. Compound plates were centrifuged for 1 minute at 250×g for 1 minute and immediately read on a PheraStar FSX (fitted with 384-well aperture spoon and 590 675 675 FP optic module). The gain and focus were adjusted before each plate was read so that the polarisation of a no enzyme control (column 24) was equal to 35 mP. Data were normalised against the no inhibitor controls (column 23) and no enzyme controls (column 24).
A general note: Fluorescence polarisation rises when a labelled molecule tumbles more slowly, as on binding a larger partner.

Assay [2] deals with T2, recombinant N-terminal PMS2 (residues 1-365) (Homo sapiens, UniProt P54278).
T2 construct: recombinant N-terminal PMS2 (residues 1-365)
T2 sequence (P54278 1-365): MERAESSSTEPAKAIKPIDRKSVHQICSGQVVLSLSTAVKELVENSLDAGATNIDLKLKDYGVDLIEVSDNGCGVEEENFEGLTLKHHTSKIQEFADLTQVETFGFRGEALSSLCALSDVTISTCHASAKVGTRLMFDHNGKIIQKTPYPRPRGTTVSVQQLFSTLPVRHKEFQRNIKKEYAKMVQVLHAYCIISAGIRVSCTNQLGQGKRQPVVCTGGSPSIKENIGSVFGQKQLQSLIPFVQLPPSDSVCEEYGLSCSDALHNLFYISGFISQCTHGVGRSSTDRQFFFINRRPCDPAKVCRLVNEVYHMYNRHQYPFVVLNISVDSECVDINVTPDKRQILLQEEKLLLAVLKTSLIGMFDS
Briefly: Fluorescence Polarisation Assay for PMS2. Type of assay: binding. The settings on record: 10 nM N-terminal PMS2, 5 nM probe compound. As to the method: Fluorescence Polarisation Assay for PMS2
For single point screening, test compounds were added to wells in columns 1-22 whilst DMSO was added to wells in columns 23 and 24 in order to normalise the plate. For potency determination, serial dilutions of test compounds were added to wells in columns 3-22 and DMSO volume was normalised across the plate.
20 μL assay buffer was added to all wells in columns 1 and 24 (column 24 only for single point screening) using a MultiDrop Combi (ThermoFisher). Plates were centrifuged for 1 minute at 250×g and were incubated at room temperature for 30 minutes prior to the addition of 20 μL of 2× (20 nM) of 5-((5-(4-((2-(2,4-dihydroxy-5-isopropylbenzoyl)isoindolin-5-yl)methyl)piperazin-1-yl)pentyl)carbamoyl)-2-(6-(dimethylamino)-3-(dimethyliminio)-3H-xanthen-9-yl)benzoate (referred to hereinafter as “probe compound”) in assay buffer (prepared from a 100 μM DMSO stock) with a MultiDrop Combi (ThermoFisher). The final concentration of N-terminal PMS2 was 10 nM and the final concentration of probe compound was 5 nM.
Compound plates were centrifuged for 1 minute at 250×g for 1 minute and were incubated at room temperature for 1 hour before being read on a PheraStar FSX (fitted with 384-well aperture spoon and 540 590 590 FP optic module). The gain and focus were adjusted before each plate was read so that the polarisation of a no enzyme control (column 24) was equal to 35 mP. Data were normalised against the no inhibitor controls (column 23) and no enzyme controls (column 24).

The mark [3] stands for this setting: fluorescence polarisation probe displacement, read-out: PMS2 IC50.

pIC50: −log10 of the molar value. Like-named read-outs stand apart in the source and are kept apart here.

One may read the pIC50 as the IC50 on a negative log10 scale, so that one unit is a factor of ten. For the compound `O=C(c1c(O)cc(O)cc1OCc1ccccc1)N1Cc2cccc(CN3CCOCC3)c2C1` [Example 10, (2-(Benzyloxy)-4,6-dihydroxyphenyl)(4-(morpholinomethyl)isoindolin-2-yl)methanone], the pIC50 in assay [1] and in assay [2] (setting [3]) was 5.00 to 6.00 in each case.
For the compound `CN(C)Cc1ccc2c(c1)CN(C(=O)c1c(O)cc(O)cc1OCc1ccccc1)C2` [Example 11, (2-(Benzyloxy)-4,6-dihydroxyphenyl)(5-((dimethylamino)methyl)isoindolin-2-yl)methanone], the pIC50 in assay [1] and in assay [2] (setting [3]) was 5.00 to 6.00 throughout.
On to `O=C(c1c(O)cc(O)cc1OCc1ccccc1)N1Cc2ccc(CN3CCOCC3)cc2C1` [Example 12, (2-(Benzyloxy)-4,6-dihydroxyphenyl)(5-(morpholinomethyl)isoindolin-2-yl)methanone], for which the pIC50 in assay [1] and in assay [2] (setting [3]) was above 6.00 each time.
With `O=C(c1c(O)cc(O)cc1OCc1ccccc1)N1Cc2ccccc2C1CO` (stereo not drawn) [Example 13, (2-(Benzyloxy)-4,6-dihydroxyphenyl)(1-(hydroxymethyl)isoindolin-2-yl)methanone], the pIC50 is above 6.00 in assay [1] and 5.00 to 6.00 in assay [2] (setting [3]).
As to `O=C(c1c(O)cc(O)cc1OCc1ccccc1)N1Cc2cccc(NC3CCCOC3)c2C1` (stereo not drawn) [Example 14, (2-(Benzyloxy)-4,6-dihydroxyphenyl)(4-((tetrahydro-2H-pyran-3-yl)amino)isoindolin-2-yl)methanone], the results for the pIC50 in assay [1] and in assay [2] (setting [3]) were above 6.00 and 5.00 to 6.00, respectively.
In the case of `O=C(c1c(O)cc(O)cc1OCc1ccccc1)N1Cc2cccc(NC3CCOCC3)c2C1` [Example 15, (2-(Benzyloxy)-4,6-dihydroxyphenyl)(4-((tetrahydro-2H-pyran-4-yl)amino)isoindolin-2-yl)methanone], the negative logarithm of the IC50 (pIC50) was above 6.00 in assay [1] and 5.00 to 6.00 in assay [2] (setting [3]).
On the same counts, the results for `COc1cc(O)cc(O)c1C(=O)N1Cc2cccc(NC3CCOC3)c2C1` (stereo not drawn) [Example 16, (2,4-Dihydroxy-6-methoxyphenyl)(4-((tetrahydrofuran-3-yl)amino)isoindolin-2-yl)methanone] are 5.00 to 6.00 and below 5.00.
With `CCOc1cc(O)cc(O)c1C(=O)N1Cc2cccc(NC3CCOC3)c2C1` (stereo not drawn) [Example 17, (2-Ethoxy-4,6-dihydroxyphenyl)(4-((tetrahydrofuran-3-yl)amino)isoindolin-2-yl)methanone], the pIC50 in assay [1] is above 6.00; in assay [2] (PMS2 IC50, fluorescence polarisation probe displacement) it was below 5.00.
As for `CN1CC(Nc2cccc3c2CN(C(=O)c2c(O)cc(O)cc2OCc2ccccc2)C3)CC1=O` (stereo not drawn) [Example 18, 4-((2-(2-(Benzyloxy)-4,6-dihydroxybenzoyl)isoindolin-4-yl)amino)-1-methylpyrrolidin-2-one], the values for the pIC50 in assay [1] and in assay [2] (setting [3]) were above 6.00 and 5.00 to 6.00, respectively.
For the compound `O=C(c1c(O)cc(O)cc1OCc1ccccc1)N1Cc2cccc(Nc3cncnc3)c2C1` [Example 19, (2-(Benzyloxy)-4,6-dihydroxyphenyl)(4-(pyrimidin-5-ylamino)isoindolin-2-yl)methanone], the pIC50 in assay [1] and in assay [2] (setting [3]) was above 6.00 each time.
As to `O=C(c1c(O)cc(O)cc1OCc1ccccc1)N1Cc2cccc(NCc3cocn3)c2C1` [Example 20, (2-(Benzyloxy)-4,6-dihydroxyphenyl)(4-((oxazol-4-ylmethyl)amino)isoindolin-2-yl)methanone], the pIC50 in assay [1] was above 6.00; in assay [2] (setting [3]), 5.00 to 6.00.
Regarding `Cn1cc(Nc2cccc3c2CN(C(=O)c2c(O)cc(O)cc2OCc2ccccc2)C3)cn1` [Example 21, (2-(Benzyloxy)-4,6-dihydroxyphenyl)(4-((1-methyl-1H-pyrazol-4-yl)amino)isoindolin-2-yl)methanone], the pIC50 in assay [1] and in assay [2] (setting [3]) was 5.00 to 6.00 throughout.
Take `O=C(c1c(O)cc(O)cc1OCc1ccccc1)N1Cc2cccc(N[C@H]3CCOC3)c2C1` [Example 22, (S)-(2-(Benzyloxy)-4,6-dihydroxyphenyl)(4-((tetrahydrofuran-3-yl)amino)isoindolin-2-yl)methanone]: the pIC50 in assay [1] and in assay [2] (setting [3]) was above 6.00 in each case.
Take `O=C(c1c(O)cc(O)cc1OCc1ccccc1)N1Cc2cccc(N[C@@H]3CCOC3)c2C1` [Example 23, (R)-(2-(Benzyloxy)-4,6-dihydroxyphenyl)(4-((tetrahydrofuran-3-yl)amino)isoindolin-2-yl)methanone]: the pIC50 was above 6.00 in assay [1] and 5.00 to 6.00 in assay [2] (setting [3]).
As to `Cc1c[nH]c(=O)cc1Nc1cccc2c1CN(C(=O)c1c(O)cc(O)cc1OCc1ccccc1)C2` [Example 24, 4-((2-(2-(benzyloxy)-4,6-dihydroxybenzoyl)isoindolin-4-yl)amino)-5-methylpyridin-2(1H)-one], the pIC50 in assay [1] and in assay [2] (setting [3]) was 5.00 to 6.00 throughout.
Turning to `O=C(c1c(O)cc(O)cc1OCC1CC1)N1Cc2cccc(NC3CCOC3)c2C1` (stereo not drawn) [Example 25, (2-(Cyclopropylmethoxy)-4,6-dihydroxyphenyl)(4-((tetrahydrofuran-3-yl)amino)isoindolin-2-yl)methanone], the pIC50 in assay [1] was above 6.00; in assay [2] (setting [3]), 5.00 to 6.00.
As for `O=C(c1c(O)cc(O)cc1OCC1CCCCC1)N1Cc2cccc(NC3CCOC3)c2C1` (stereo not drawn) [Example 26, (2-(cyclohexylmethoxy)-4,6-dihydroxyphenyl)(4-((tetrahydrofuran-3-yl)amino)isoindolin-2-yl)methanone], the pIC50 in assay [1] and in assay [2] (setting [3]) was 5.00 to 6.00 in each case.
Regarding `O=C(c1c(O)cc(O)cc1OCc1ccccc1)N1CCc2c(cccc2NC2CCOC2)C1` (stereo not drawn) [Example 27, (2-(Benzyloxy)-4,6-dihydroxyphenyl)(5-((tetrahydrofuran-3-yl)amino)-3,4-dihydroisoquinolin-2(1H)-yl)methanone], the pIC50 in assay [1] and in assay [2] (setting [3]) was 5.00 to 6.00 each time.
With `O=C(c1c(O)cc(O)cc1OCC1CCCCC1)N1CCc2cccc(NC3CCOC3)c2C1` (stereo not drawn) [Example 28, (2-(Cyclohexylmethoxy)-4,6-dihydroxyphenyl)(8-((tetrahydrofuran-3-yl)amino)-3,4-dihydroisoquinolin-2(1H)-yl)methanone], the pIC50 in assay [1] and in assay [2] (setting [3]) was 5.00 to 6.00 throughout.
On to `CNc1cccc2c1CN(C(=O)c1c(O)cc(O)cc1OCc1ccccc1)C2` [Example 29, (2-(Benzyloxy)-4,6-dihydroxyphenyl)(4-(methylamino)isoindolin-2-yl)methanone], for which the pIC50 in assay [1] and in assay [2] (setting [3]) was 5.00 to 6.00 throughout.
With `O=C(c1c(O)cc(O)cc1OCc1ccccc1)N1Cc2cccc(NC3COCC(F)(F)C3)c2C1` (stereo not drawn) [Example 32, (2-(Benzyloxy)-4,6-dihydroxyphenyl)(4-((5,5-difluorotetrahydro-2H-pyran-3-yl)amino)isoindolin-2-yl)methanone], the negative-log IC50 (pIC50) in assay [1] and in assay [2] (setting [3]) was 5.00 to 6.00 throughout.
